Here are results for 10 compounds from ChEMBL document CHEMBL3137667, “[Drug-induced liver injury; fourteenth updated edition of the bibliographic database of liver injuries and related drugs]” (Gastroenterol Clin Biol, 2004).

Structures are written as SMILES.

For data set [1] the following is noted: human, serum, 4383 h.
For data set [2] the following is noted: human.
Data set [3] in a line: Comments (NB not yet translated). [column 'COMMENTAIRES' in source]. The conditions noted are these: human.
For data set [4] the following is noted: human. The source holds these as a separate data set.
For data set [5] the following is noted: human. The source holds these as a separate data set.
For data set [6] the following is noted: human. The source holds these as a separate data set.
For data set [7] the following is noted: human. The source holds these as a separate data set.
The conditions of data set [8]: human. This is another data set of the same source.
The conditions of data set [9]: human. This is another data set of the same source.
Data set [10] is described as follows: Highest frequency of moderate liver toxicity observed during clinical trials, expressed as a percentage. [column '% BIOL' in source]. The conditions noted are these: human.
For data set [11] the following is noted: human. This is another data set of the same source.
A short description of data set [12]: Highest frequency of acute liver toxicity observed during clinical trials, expressed as a percentage. [column '% AIGUE' in source]. The settings on record: human.
The conditions of data set [13]: human. The source holds these as a separate data set.
Data set [14] can be described thus: Times to onset, minimal and maximal, observed in the indexed observations. [column 'DELAI' in source]. The conditions noted are these: human.
The conditions of data set [15]: human, serum.
For data set [16] the following is noted: human, serum. This is another data set of the same source.
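For Hepatotoxicity (association with vascular disease) in this document: count of indexed literature references reporting vascular liver injury in humans, e.g. peliosis hepatitis, hepatic veno-occlusive disease or Budd-Chiari syndrome.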
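For Hepatotoxicity (benign tumour) in this document: value is a count of indexed literature references citing a benign tumour confirmed by histopathology.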
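For Hepatotoxicity (choleostasis) in this document: human cholestatic liver injury, shown by histopathology or by peak ALT or AST elevation over alkaline phosphatase ratio below 2, value counts indexed literature reports.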
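For Hepatotoxicity (chronic liver disease) in this document: chronic liver injury confirmed by histopathology or persistently raised serum aminotransferase activity beyond 6 months, value given as the count of indexed literature references.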
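For Hepatotoxicity (cirrhosis) in this document: value is a count of indexed literature references reporting cirrhosis confirmed by histopathology.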
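For Hepatotoxicity (cytolytic) in this document: human cytolytic liver injury, shown by histopathology or by a ratio above 5 of peak ALT or AST elevation to alkaline phosphatase elevation, value counts indexed references.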
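For Hepatotoxicity (granulomatous hepatitis) in this document: value is a count of indexed literature references reporting granulomatous liver disease confirmed by histopathology.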
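For Hepatotoxicity (malignant tumour) in this document: malignant tumour confirmed by histopathology, value gives the count of indexed literature references reporting it.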
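For Hepatotoxicity (severe hepatitis) in this document: human clinical data: severe hepatitis, meaning potentially life-threatening liver failure or clinically observed cases, the value counts how many indexed literature references report it.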
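For Hepatotoxicity (steatosis) in this document: steatosis confirmed by histopathology, value is the count of indexed references.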

Take `CCN1CCN(C(=O)N[C@@H](C(=O)N[C@@H]2C(=O)N3C(C(=O)O)=C(CSc4nnnn4C)CS[C@H]23)c2ccc(O)cc2)C(=O)C1=O` [CEFOPERAZONE]: the “Hepatotoxicity (chronic liver disease)” value in data set [1] is listed as 0. In data set [2], the “Hepatotoxicity (malignant tumour)” value stood at 0. In addition, the “Hepatotoxicity (comment)” value in data set [3] was “CHOLANGITE”. For the same compound, the “Hepatotoxicity (cirrhosis)” value in [4] was found to be 0. For the same compound, in [5], the “Hepatotoxicity (granulomatous hepatitis)” value came to 0. The “Hepatotoxicity (benign tumour)” value in [6] came out at 0. In addition, the “Hepatotoxicity (steatosis)” value in data set [7] is listed as 0. In addition, the “Hepatotoxicity (cytolytic)” value in [8] was determined as 0. Further, in data set [9], the “Hepatotoxicity (association with vascular disease)” value was 0. Moreover, the “Hepatotoxicity (moderate)” value turned out to be 20% in data set [10] (Liver) and 15 in [16]. In addition, the “Hepatotoxicity (severe hepatitis)” value in [11] (Liver) came to 1. Besides, the entries for the “Hepatotoxicity (acute)” value in [12] (Liver) and in data set [15] were 0% and 0, respectively. The “Hepatotoxicity (choleostasis)” value in data set [13] turned out to be 0. Besides, the “Hepatotoxicity (time to onset)” value in data set [14] is reported as 23 days.

On to `CC(C)(C)NCC(O)c1cc(O)cc(O)c1` (configuration not stated) [TERBUTALINE], for which, in [1], the “Hepatotoxicity (chronic liver disease)” value is 0. The “Hepatotoxicity (malignant tumour)” value in [2] is 0. Further, in data set [3], the “Hepatotoxicity (comment)” value is listed as “VOIR_BAMBUTEROL”. In data set [4], the “Hepatotoxicity (cirrhosis)” value is recorded as 0. The “Hepatotoxicity (granulomatous hepatitis)” value in data set [5] is 0. The “Hepatotoxicity (benign tumour)” value in data set [6] was 0. Besides, the “Hepatotoxicity (steatosis)” value in [7] was 0. Moreover, the “Hepatotoxicity (cytolytic)” value in [8] amounted to 2. For the same compound, in [9], the “Hepatotoxicity (association with vascular disease)” value is 0. Also, the results for the “Hepatotoxicity (moderate)” value in data set [10] and in data set [16] were 0% and 0, respectively. Further, the “Hepatotoxicity (severe hepatitis)” value in data set [11] is 0. The “Hepatotoxicity (acute)” value amounted to 0% in data set [12] and 2 in [15]. Besides, the “Hepatotoxicity (choleostasis)” value in data set [13] was 0. The “Hepatotoxicity (time to onset)” value in data set [14] is recorded as 4 weeks - 8 weeks.

On to `CC(=O)c1ccc2c(c1)N(CC(C)N(C)C)c1ccccc1S2` (configuration not stated) [ACEPROMETAZINE], for which the “Hepatotoxicity (chronic liver disease)” value in data set [1] is 0. Besides, the “Hepatotoxicity (malignant tumour)” value in [2] was 0. Besides, the “Hepatotoxicity (comment)” value in data set [3] is “CHOLESTASE_PROLONGEE”. In [4], the “Hepatotoxicity (cirrhosis)” value is 0. For the same compound, the “Hepatotoxicity (granulomatous hepatitis)” value in data set [5] turned out to be 0. Further, the “Hepatotoxicity (benign tumour)” value in [6] was found to be 0. In data set [7], the “Hepatotoxicity (steatosis)” value is listed as 0. In addition, the “Hepatotoxicity (cytolytic)” value in data set [8] is 0. In [9], the “Hepatotoxicity (association with vascular disease)” value is recorded as 0. Further, the “Hepatotoxicity (moderate)” value stood at 0% in data set [10] and 0 in [16]. Further, the “Hepatotoxicity (severe hepatitis)” value in data set [11] stood at 0. Besides, the “Hepatotoxicity (acute)” value in data set [12] was 0%; in data set [15] it was 1. Further, the “Hepatotoxicity (choleostasis)” value in data set [13] is 1. In [14], the “Hepatotoxicity (time to onset)” value is on record as 3 months.

Take `O=C(O)C1N=C(c2ccccc2)c2cc(Cl)ccc2NC1=O` (configuration not stated) [CLORAZEPIC ACID]: the “Hepatotoxicity (chronic liver disease)” value in data set [1] was 0. Further, in data set [2], the “Hepatotoxicity (malignant tumour)” value amounted to 0. Besides, the “Hepatotoxicity (comment)” value in [3] was “CHOLESTASE_PROLONGEE”. In data set [4], the “Hepatotoxicity (cirrhosis)” value is on record as 0. For the same compound, the “Hepatotoxicity (granulomatous hepatitis)” value in data set [5] was determined as 0. Also, in [6], the “Hepatotoxicity (benign tumour)” value was found to be 0. Further, the “Hepatotoxicity (steatosis)” value in [7] stood at 0. Also, in [8], the “Hepatotoxicity (cytolytic)” value is on record as 2. In data set [9], the “Hepatotoxicity (association with vascular disease)” value is 0. Moreover, the “Hepatotoxicity (moderate)” value stood at 0% in [10] and 0 in data set [16]. The “Hepatotoxicity (severe hepatitis)” value in [11] is 0. The entries for the “Hepatotoxicity (acute)” value in [12] and in [15] were 0% and 3, respectively. Moreover, the “Hepatotoxicity (choleostasis)” value in data set [13] is 3. Besides, in [14], the “Hepatotoxicity (time to onset)” value is recorded as 2 months - 3 months.

For `CCCCC1=NC2(CCCC2)C(=O)N1Cc1ccc(-c2ccccc2-c2nnn[nH]2)cc1` [IRBESARTAN], in [1], the “Hepatotoxicity (chronic liver disease)” value is recorded as 0. Further, the “Hepatotoxicity (malignant tumour)” value in [2] amounted to 0. Besides, the “Hepatotoxicity (comment)” value in data set [3] was “CHOLESTASE_PROLONGEE”. In addition, in data set [4], the “Hepatotoxicity (cirrhosis)” value was found to be 0. Also, the “Hepatotoxicity (granulomatous hepatitis)” value in data set [5] was 0. For the same compound, the “Hepatotoxicity (benign tumour)” value in data set [6] was 0. Further, the “Hepatotoxicity (steatosis)” value in data set [7] is listed as 0. Besides, the “Hepatotoxicity (cytolytic)” value in data set [8] amounted to 0. Also, the “Hepatotoxicity (association with vascular disease)” value in data set [9] is given as 0. The “Hepatotoxicity (moderate)” value in data set [10] (Liver) is reported as 4.3%; in data set [16], 2. Moreover, the “Hepatotoxicity (severe hepatitis)” value in data set [11] (Liver) is reported as 0. The “Hepatotoxicity (acute)” value in data set [12] (Liver) is on record as 0%; in data set [15], 2. The “Hepatotoxicity (choleostasis)” value in [13] is listed as 2. The “Hepatotoxicity (time to onset)” value in data set [14] is listed as 5 days - 4 weeks.

On to `CC(CN(C)C)CN1c2ccccc2Sc2ccc(C#N)cc21` (configuration not stated) [CYAMEMAZINE], for which, in [1], the “Hepatotoxicity (chronic liver disease)” value is reported as 0. The “Hepatotoxicity (malignant tumour)” value in data set [2] was found to be 0. For the same compound, in data set [3], the “Hepatotoxicity (comment)” value is “CHOLANGITE #CIRROSE_BILIAIRE RC/DESIPRAMINE/TRIMIPRAMINE”. The “Hepatotoxicity (cirrhosis)” value in [4] is 0. Further, the “Hepatotoxicity (granulomatous hepatitis)” value in data set [5] is given as 1. Moreover, the “Hepatotoxicity (benign tumour)” value in [6] amounted to 0. Moreover, in [7], the “Hepatotoxicity (steatosis)” value turned out to be 0. For the same compound, the “Hepatotoxicity (cytolytic)” value in [8] is 1. Further, the “Hepatotoxicity (association with vascular disease)” value in data set [9] is given as 0. The “Hepatotoxicity (moderate)” value is on record as 0% in data set [10] and 0 in data set [16]. In data set [11], the “Hepatotoxicity (severe hepatitis)” value was found to be 1. Besides, the “Hepatotoxicity (acute)” value was found to be 0% in data set [12] and 4 in [15]. The “Hepatotoxicity (choleostasis)” value in [13] came out at 3. Moreover, in data set [14], the “Hepatotoxicity (time to onset)” value came out at 2 days - 7 weeks.

In the case of `C[C@]12CC[C@@H]3c4ccc(OS(=O)(=O)O)cc4CC[C@H]3[C@@H]1CCC2=O` [ESTRONE SULFURIC ACID], the “Hepatotoxicity (chronic liver disease)” value in data set [1] came to 0. Also, the “Hepatotoxicity (malignant tumour)” value in [2] amounted to 0. In [3], the “Hepatotoxicity (comment)” value is reported as “HNF”. In addition, the “Hepatotoxicity (cirrhosis)” value in [4] turned out to be 0. For the same compound, the “Hepatotoxicity (granulomatous hepatitis)” value in data set [5] is given as 0. Besides, the “Hepatotoxicity (benign tumour)” value in data set [6] amounted to 1. Besides, in data set [7], the “Hepatotoxicity (steatosis)” value amounted to 0. Also, the “Hepatotoxicity (cytolytic)” value in [8] is given as 0. Moreover, the “Hepatotoxicity (association with vascular disease)” value in data set [9] was determined as 0. Further, the “Hepatotoxicity (moderate)” value in data set [10] is 22.9%; in data set [16], 5. In data set [11], the “Hepatotoxicity (severe hepatitis)” value amounted to 0. For the same compound, the “Hepatotoxicity (acute)” value in data set [12] was 0%; in [15] it was 1. Also, the “Hepatotoxicity (choleostasis)” value in data set [13] is 1. The “Hepatotoxicity (time to onset)” value in data set [14] is given as 3 months - 1 year.

In the case of `CN(C)C(=O)Oc1cc(OC(=O)N(C)C)cc(C(O)CNC(C)(C)C)c1` (configuration not stated) [BAMBUTEROL], the “Hepatotoxicity (chronic liver disease)” value in data set [1] is reported as 0. Further, in data set [2], the “Hepatotoxicity (malignant tumour)” value worked out at 0. In addition, the “Hepatotoxicity (comment)” value in data set [3] was “VOIR_TERBUTALINE”. In [4], the “Hepatotoxicity (cirrhosis)” value stood at 0. Moreover, the “Hepatotoxicity (granulomatous hepatitis)” value in data set [5] came out at 0. The “Hepatotoxicity (benign tumour)” value in [6] was determined as 0. In [7], the “Hepatotoxicity (steatosis)” value was determined as 0. Further, in data set [8], the “Hepatotoxicity (cytolytic)” value is listed as 0. Further, in data set [9], the “Hepatotoxicity (association with vascular disease)” value is 0. Moreover, the “Hepatotoxicity (moderate)” value in data set [10] came out at 0%; in data set [16], 1. Further, the “Hepatotoxicity (severe hepatitis)” value in [11] is listed as 0. In addition, the “Hepatotoxicity (acute)” value is listed as 0% in [12] and 0 in [15]. Further, in data set [13], the “Hepatotoxicity (choleostasis)” value is recorded as 0.

In the case of `CC1=C(C/C=C(\C)CCC[C@H](C)CCC[C@H](C)CCCC(C)C)C(=O)c2ccccc2C1=O` [PHYTONADIONE], in data set [1], the “Hepatotoxicity (chronic liver disease)” value is listed as 0. The “Hepatotoxicity (malignant tumour)” value in [2] is 0. Further, the “Hepatotoxicity (comment)” value in data set [3] is “ICTERE_NEONATAL”. Also, in data set [4], the “Hepatotoxicity (cirrhosis)” value was found to be 0. Also, the “Hepatotoxicity (granulomatous hepatitis)” value in data set [5] is listed as 0. In addition, in [6], the “Hepatotoxicity (benign tumour)” value was 0. The “Hepatotoxicity (steatosis)” value in [7] worked out at 0. Moreover, the “Hepatotoxicity (cytolytic)” value in data set [8] turned out to be 0. Moreover, in [9], the “Hepatotoxicity (association with vascular disease)” value is 0. For the same compound, the “Hepatotoxicity (moderate)” value in data set [10] was 0%; in data set [16], 0. Besides, the “Hepatotoxicity (severe hepatitis)” value in data set [11] is recorded as 0. In addition, the results for the “Hepatotoxicity (acute)” value in [12] and in [15] were 0% and 5, respectively. Also, in [13], the “Hepatotoxicity (choleostasis)” value turned out to be 0.

Take `C[C@]12CCC(=O)C=C1CC[C@@H]1[C@@H]2C(=O)C[C@@]2(C)[C@H]1CC[C@]2(O)C(=O)CO` [CORTISONE]: the “Hepatotoxicity (chronic liver disease)” value in data set [1] amounted to 0. In data set [2], the “Hepatotoxicity (malignant tumour)” value is given as 0. Moreover, the “Hepatotoxicity (comment)” value in data set [3] is on record as “AGGRAVATION_HEPATITE_VIRALE”. Further, in data set [4], the “Hepatotoxicity (cirrhosis)” value is given as 0. Besides, the “Hepatotoxicity (granulomatous hepatitis)” value in data set [5] turned out to be 0. The “Hepatotoxicity (benign tumour)” value in [6] was 0. For the same compound, the “Hepatotoxicity (steatosis)” value in data set [7] stood at 5. Moreover, the “Hepatotoxicity (cytolytic)” value in [8] stood at 0. In addition, the “Hepatotoxicity (association with vascular disease)” value in data set [9] is on record as 2. In addition, the “Hepatotoxicity (moderate)” value in [10] is reported as 0%; in data set [16], 0. For the same compound, the “Hepatotoxicity (severe hepatitis)” value in data set [11] worked out at 0. Also, the “Hepatotoxicity (acute)” value in [12] amounted to 0%; in data set [15] it was 0. For the same compound, the “Hepatotoxicity (choleostasis)” value in [13] is given as 0.
